According to paper PMC7587356, “High-Throughput Screening for Inhibitors of the SARS-CoV-2 Protease Using a FRET-Biosensor” (Molecules, 2020):
Structures can show the parent of a compound that is named as a salt. Where two headings read alike, the source gives them in different places.

Biological target: SARS-CoV-2 3CLpro (Severe acute respiratory syndrome coronavirus 2, UniProt P0DTD1)
Experiment: biochemical
Assay type: biochemical
Design: Replicate_1 / Replicate_2 / mean / mean (LOPAC_screen_w_protease): unit not given here
Details: for inhibition at 5 µM: 4 h
[1] = sheet LOPAC_screen_w_protease, primary screen with protease, compound at 5 µM, mean of two replicates
[2] = sheet LOPAC_screen_w_protease, primary screen with protease, compound at 5 µM, replicate 1
[3] = sheet LOPAC_screen_w_protease, primary screen with protease, compound at 5 µM, replicate 2
[4] = sheet LOPAC_screen_w_protease, LOPAC1280 primary screen at 5 µM, with protease, mean of the two replicates
[5] = sheet LOPAC_screen_w_protease, LOPAC1280 primary screen at 5 µM, with protease, replicate 1
[6] = sheet LOPAC_screen_w_protease, LOPAC1280 primary screen at 5 µM, with protease, replicate 2
[7] = sheet LOPAC_screen_w_protease, primary screen of LOPAC1280 at 5 µM with protease, mean of the two replicates, read-out: mean
[8] = sheet LOPAC_screen_w_protease, primary screen of LOPAC1280 at 5 µM with protease, replicate 1, read-out: Replicate_1
[9] = sheet LOPAC_screen_w_protease, primary screen of LOPAC1280 at 5 µM with protease, replicate 2, read-out: Replicate_2
[10] = LOPAC1280 primary screen with protease, 5 µM compound, replicate 1, read-out: Replicate_1 (LOPAC_screen_w_protease)
[11] = LOPAC1280 primary screen with protease, 5 µM compound, replicate 2, read-out: Replicate_2 (LOPAC_screen_w_protease)
[12] = LOPAC1280 primary screen with protease, 5 µM compound, mean of two replicates

O=C(Cc1ccc(Cl)c(Cl)c1)OCCN1CCCC1.O=C(O)C(=O)O [AC 915 oxalate]
mean (sheet LOPAC_screen_w_protease, LOPAC1280 at 5 µM, mean of two replicates): 1.181 | Replicate_1 (sheet LOPAC_screen_w_protease, LOPAC1280 at 5 µM, replicate 1): 1.4848 | Replicate_2 (sheet LOPAC_screen_w_protease, LOPAC1280 at 5 µM, replicate 2): 0.8765

CC(C)C1C2CCC(C2)C1N.Cl (centres unmarked) [AGN 192403 hydrochloride]
mean [1]: 2.735 | Replicate_1 [2]: 2.811 | Replicate_2 [3]: 2.66

NC1(C(=O)O)CCc2cc(C(=O)O)ccc21 (centres unmarked) [AIDA]
mean (sheet LOPAC_screen_w_protease, primary screen of LOPAC1280 at 5 µM with protease, mean of the two replicates): 3.327 | Replicate_1 (sheet LOPAC_screen_w_protease, primary screen of LOPAC1280 at 5 µM with protease, replicate 1): 3.929 | Replicate_2 (sheet LOPAC_screen_w_protease, primary screen of LOPAC1280 at 5 µM with protease, replicate 2): 2.7246

O=C(O)CCC/C=C\C[C@@H]1[C@@H](/C=C/[C@H](O)C2Cc3ccccc3C2)[C@@H](F)C[C@@H]1O [AL-8810]
Replicate_1: 0.247 | Replicate_2: 1.148 | mean: 0.6974

CCN(CC)c1ncnc2c1ncn2[C@@H]1O[C@H](COP(=O)([O-])OP(=O)([O-])C(Br)(Br)P(=O)([O-])O)[C@@H](O)[C@H]1O.[Na+].[Na+].[Na+] [ARL 67156 trisodium salt]
mean [1]: 2.893 | Replicate_1 [2]: 2.692 | Replicate_2 [3]: 3.094

CC(C)(C)c1o[nH]c(=O)c1CC(N)C(=O)O (centres unmarked) [ATPA]
mean [4]: 0.4603 | Replicate_1 [5]: -0.08438 | Replicate_2 [6]: 1.005

CC(C)(C)c1onc(OCP(=O)(O)O)c1CC(N)C(=O)O (centres unmarked) [ATPO]
mean [1]: 3.0772 | Replicate_1 [2]: 4.002 | Replicate_2 [3]: 2.152

CC(=O)Nc1nnc(S(N)(=O)=O)s1 [Acetazolamide]
inhibition at 5 µM (sheet LOPAC_screen_w_protease, primary screen with protease, 5 µM, replicate 1, read-out: Replicate_1): 0.216% | inhibition at 5 µM (sheet LOPAC_screen_w_protease, primary screen with protease, 5 µM, replicate 2, read-out: Replicate_2): -0.714%

CC(=O)c1ccc(S(=O)(=O)NC(=O)NC2CCCCC2)cc1 [Acetohexamide]
inhibition at 5 µM [7]: 3.3% | inhibition at 5 µM [8]: 2.5% | inhibition at 5 µM [9]: 4.1%

CC(=O)OC(C)C[N+](C)(C)C.[Cl-] (stereo not drawn) [Acetyl-beta-methylcholine chloride]
mean (sheet LOPAC_screen_w_protease, primary screen with protease, 5 µM, mean of two replicates): 0.2718 | Replicate_1 (sheet LOPAC_screen_w_protease, primary screen with protease, 5 µM, replicate 1): 1.198 | Replicate_2 (sheet LOPAC_screen_w_protease, primary screen with protease, 5 µM, replicate 2): -0.6541

CC(=O)Oc1ccccc1C(=O)O [Acetylsalicylic acid]
inhibition at 5 µM [10]: 1.9% | inhibition at 5 µM [11]: 1.38% | mean (LOPAC_screen_w_protease) [12]: 1.637

CC(=O)SCC[N+](C)(C)C.[Cl-] [Acetylthiocholine chloride]
mean [4]: 0.4496 | Replicate_1 [5]: 1.2654 | Replicate_2 [6]: -0.3662

CCCCC[C@H](CC(=O)NO)C(=O)N[C@H](C(=O)N1CCC[C@H]1CO)C(C)C [Actinonin]
inhibition at 5 µM [10]: 1.42% | inhibition at 5 µM [11]: 1.48% | mean (LOPAC_screen_w_protease) [12]: 1.4498

NCCNC(=O)Cc1ccc(NC(=O)Cc2ccc(Nc3ncnc4c3ncn4[C@@H]3O[C@H](CO)[C@@H](O)[C@H]3O)cc2)cc1 [Adenosine amine congener]
mean [1]: 2.686 | Replicate_1 [2]: 3.268 | Replicate_2 [3]: 2.1037

Nc1ncnc2c1ncn2[C@@H]1O[C@H](CO)[C@@H](O)[C@H]1O [Adenosine]
inhibition at 5 µM (read-out: Replicate_1): 1.26% | inhibition at 5 µM (read-out: Replicate_2): 3.55% | inhibition at 5 µM (read-out: mean): 2.4%

NCCCCN=C(N)N [Agmatine sulfate]
inhibition at 5 µM (sheet LOPAC_screen_w_protease, LOPAC1280 at 5 µM, mean of two replicates, read-out: mean): 1.26% | inhibition at 5 µM (sheet LOPAC_screen_w_protease, LOPAC1280 at 5 µM, replicate 1, read-out: Replicate_1): 0.743% | inhibition at 5 µM (sheet LOPAC_screen_w_protease, LOPAC1280 at 5 µM, replicate 2, read-out: Replicate_2): 1.77%

CC1=C[C@@H]2c3cccc4[nH]cc(c34)C[C@H]2N(C)C1 [Agroclavine]
inhibition at 5 µM [7]: 3.47% | inhibition at 5 µM [8]: 3.6% | inhibition at 5 µM [9]: 3.34%

CC(N)C(=O)OC(C)(C)Cc1ccc(Cl)cc1 (centres unmarked) [Alaproclate hydrochloride]
inhibition at 5 µM [7]: 3.56% | inhibition at 5 µM [8]: 2.81% | inhibition at 5 µM [9]: 4.3%

CC(C)(C)NCC(O)c1ccc(O)c(CO)c1.CC(C)(C)NCC(O)c1ccc(O)c(CO)c1.O=S(=O)(O)O (centres unmarked) [Albuterol hemisulfate]
mean (LOPAC_screen_w_protease) (LOPAC1280 primary screen with protease, 5 µM compound, mean of the two replicates): 2.078 | Replicate_1 (LOPAC_screen_w_protease) (LOPAC1280 primary screen with protease, 5 µM compound, replicate 1): 2.563 | Replicate_2 (LOPAC_screen_w_protease) (LOPAC1280 primary screen with protease, 5 µM compound, replicate 2): 1.593
